Results: patent US20170246204A1, “MEDICAMENT FOR TREATING A DISEASE RELATING TO A DYSFUNCTION OF THE DOPAMINERGIC SYNAPTIC TRANSMISSION” (L'Air Liquide, Société Anonyme pour l'Etude et …, priority 2014, published 2017)

Columns and labels:
[1] = tested on: dopaminergic neurons (TH+) of rat mesencephalon cultures; experiment: tritiated dopamine reuptake per TH+ dopaminergic neuron in mesencephalon cultures; assay type: cell-based; conditions: D14; memantine 10 μM; 75% Xe or 75% N2; p<0.05, n=9
Method: Cultures are prepared from mesencephalon of rat embryos, taking from female Wistar rats, on day 15.5 of gestation.
The process for obtaining the mesencephalon cultures comprises the obtaining of a homogeneous cell suspension by mechanical dissociation, that is to say non-enzymatic dissociation, of the embryonic tissue, using Leibovitz's L15 medium (Sigma Aldrich).
Aliquots of this suspension are added to 48-well Nunc plates, which have been precoated with a thin layer of polyethyleneimine (1 mg/ml, borate buffer, pH 8.3) so as to allow the adhesion of neuronal cells (Toulorge et al., Faseb J, 2011).
The seeding density is between approximately 80 000 and 100 000 cells/cm^2.
The mesencephalon cultures are maintained in Minimum Essential culture Medium (MEM), containing 1 g/l of glucose, 2 mM of L-glutamine, 1 mM of sodium pyruvate, non-essential amino acids and a penicillin/streptomycin cocktail. For the first week of culture, this medium is supplemented with 10% of fetal calf serum and 10% of horse serum. Starting from the second week, the serum concentrations are reduced to 2% (Gao et al., J Neurosci, 2002).
Up until the moment when the effects of the gases of interest are evaluated, the cultures are placed in a conventional enclosure thermostated at 37° C., in which the CO2 is maintained at 5% by volume and wherein the atmosphere is saturated with water. […]

[2] = tested on: dopaminergic neurons (TH+) of rat mesencephalon cultures; experiment: neurite length per TH+ dopaminergic neuron in mesencephalon cultures; assay type: cell-based; conditions: D14; memantine 10 μM; 75% Xe or 75% N2; p<0.05, n=9
Method: Cultures are prepared from mesencephalon of rat embryos, taking from female Wistar rats, on day 15.5 of gestation. The process for obtaining the mesencephalon cultures comprises the obtaining of a homogeneous cell suspension by mechanical dissociation, that is to say non-enzymatic dissociation, of the embryonic tissue, using Leibovitz's L15 medium (Sigma Aldrich). Aliquots of this suspension are added to 48-well Nunc plates, which have been precoated with a thin layer of polyethyleneimine (1 mg/ml, borate buffer, pH 8.3) so as to allow the adhesion of neuronal cells (Toulorge et al., Faseb J, 2011). The seeding density is between approximately 80 000 and 100 000 cells/cm^2. The mesencephalon cultures are maintained in Minimum Essential culture Medium (MEM), containing 1 g/l of glucose, 2 mM of L-glutamine, 1 mM of sodium pyruvate, non-essential amino acids and a penicillin/streptomycin cocktail. For the first week of culture, this medium is supplemented with 10% of fetal calf serum and 10% of horse serum. […] Up until the moment when the effects of the gases of interest are evaluated, the cultures are placed in a conventional enclosure thermostated at 37° C., in which the CO2 is maintained at 5% by volume and wherein the atmosphere is saturated with water. […] This parameter is evaluated with the same HCS Studio software.

SMILES | dopamine reuptake per TH^+ neuron, effect compared with control cultures under 75% nitrogen (FIG. 1) [1] | neurite length per TH^+ neuron, effect compared with control cultures under 75% nitrogen (FIG. 2) [2]
CC12CC3CC(C)(C1)CC(N)(C3)C2 [Memantine, memantine] | significantly greater | significantly greater
[Xe] [Xenon, xenon] | significantly greater | significantly greater
